Measured values reported in the supplement of paper PMC10307832.

Experiments:
Test in all cases: relative viability (nuclei count vs DMSO), 5 days (fraction); higher = more cells survive
Neratinib + Pictilisib = compound: CCOc1cc2ncc(C#N)c(Nc3ccc(OCc4ccccn4)c(Cl)c3)c2cc1NC(=O)/C=C/CN(C)C [Neratinib] + CS(=O)(=O)N1CCN(Cc2cc3nc(-c4cccc5[nH]ncc45)nc(N4CCOCC4)c3s2)CC1 [Pictilisib] (partner 1 µM)
Method in brief: (§1)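 Lung cancer cell lines, seeded in 1536-well plates, were treated the following day by pin tool with a single drug or with five library-drug doses (not always all listed) in √10 steps on top of a fixed anchor-drug dose. Cells were fixed and nuclei stained in one step after 5 days, and nuclei were counted. Relative viability is the nuclei count for treated wells divided by that for vehicle wells, reported as medians of duplicate plates.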

Neratinib + Crizotinib = compound: CCOc1cc2ncc(C#N)c(Nc3ccc(OCc4ccccn4)c(Cl)c3)c2cc1NC(=O)/C=C/CN(C)C [Neratinib] + C[C@@H](Oc1cc(-c2cnn(C3CCNCC3)c2)cnc1N)c1c(Cl)ccc(F)c1Cl [Crizotinib] (partner 1 µM)
Method in brief: as §1

Neratinib + Dasatinib = compound: CCOc1cc2ncc(C#N)c(Nc3ccc(OCc4ccccn4)c(Cl)c3)c2cc1NC(=O)/C=C/CN(C)C [Neratinib] + Cc1nc(Nc2ncc(C(=O)Nc3c(C)cccc3Cl)s2)cc(N2CCN(CCO)CC2)n1 [Dasatinib] (partner 0.075 µM)
Method in brief: as §1

Neratinib + Vorinostat = compound: CCOc1cc2ncc(C#N)c(Nc3ccc(OCc4ccccn4)c(Cl)c3)c2cc1NC(=O)/C=C/CN(C)C [Neratinib] + O=C(CCCCCCC(=O)Nc1ccccc1)NO [Vorinostat] (partner 1 µM)
Method in brief: as §1

Row | Cell Line | relative viability (Neratinib + Pictilisib; first compound 0.01 µM) | relative viability (Neratinib + Pictilisib; first compound 0.03162 µM) | relative viability (Neratinib + Pictilisib; first compound 0.1 µM) | relative viability (Neratinib + Pictilisib; first compound 0.3162 µM) | relative viability (Neratinib + Pictilisib; first compound 1 µM) | relative viability (Neratinib + Crizotinib; first compound 0.01 µM) | relative viability (Neratinib + Crizotinib; first compound 0.03162 µM) | relative viability (Neratinib + Crizotinib; first compound 0.1 µM) | relative viability (Neratinib + Crizotinib; first compound 0.3162 µM) | relative viability (Neratinib + Crizotinib; first compound 1 µM) | relative viability (Neratinib + Dasatinib; first compound 0.01 µM) | relative viability (Neratinib + Dasatinib; first compound 0.03162 µM) | relative viability (Neratinib + Dasatinib; first compound 0.1 µM) | relative viability (Neratinib + Dasatinib; first compound 0.3162 µM) | relative viability (Neratinib + Dasatinib; first compound 1 µM) | relative viability (Neratinib + Vorinostat; first compound 0.01 µM) | relative viability (Neratinib + Vorinostat; first compound 0.03162 µM) | relative viability (Neratinib + Vorinostat; first compound 0.1 µM) | relative viability (Neratinib + Vorinostat; first compound 0.3162 µM) | relative viability (Neratinib + Vorinostat; first compound 1 µM)
1 | HCC-366 | 0.174 | 0.149 | 0.101 | 0.137 | 0.112 | 0.653 | 0.766 | 0.46 | 0.48 | 0.519 | 0.688 | 0.716 | 0.615 | 0.588 | 0.689 | 0.337 | 0.408 | 0.345 | 0.381 | 0.312
2 | HCC-827 | 0.872 | 0.88 | 0.73 | 0.623 | 0.219 | 0.986 | 0.996 | 0.778 | 0.7 | 0.176 | 0.421 | 0.39 | 0.366 | 0.248 | 0.169 | 0.929 | 0.975 | 0.817 | 0.395 | 0.205
3 | HOP-62 | 0.677 | 0.826 | 0.691 | 0.669 | 0.52 | 1.07 | 1.05 | 0.806 | 0.932 | 0.958 | 0.636 | 0.67 | 0.602 | 0.686 | 0.676 | 0.608 | 0.691 | 0.586 | – | 0.72
4 | IA-LM | 0.33 | 0.318 | 0.193 | 0.197 | 0.126 | 0.981 | 0.799 | 0.681 | 0.766 | 0.536 | – | – | – | – | – | 0.983 | 1 | – | 0.924 | 0.715
5 | LC-2-ad | 0.525 | 0.485 | 0.0712 | 0.249 | 0.162 | 0.456 | 0.457 | 0.41 | 0.386 | 0.294 | 0.569 | 0.697 | 0.545 | 0.304 | 0.342 | 0.662 | 0.739 | 0.687 | 0.664 | 0.709
6 | LCLC-97TM1 | 0.212 | 0.164 | 0.199 | 0.143 | 0.138 | 0.344 | 0.33 | 0.314 | 0.242 | 0.136 | 1.05 | 0.859 | 0.858 | 0.726 | 0.693 | 0.985 | 0.822 | 0.762 | – | 0.48
7 | LCLC-103H | 0.597 | 0.668 | 0.575 | 0.582 | 0.587 | 1.09 | 0.989 | 0.88 | 0.892 | 0.884 | 0.551 | 0.5 | 0.415 | 0.375 | 0.346 | – | 0.822 | 0.72 | 0.796 | 0.775
8 | LK-2 | 0.653 | 0.566 | 0.594 | 0.446 | 0.266 | 0.209 | 0.191 | 0.206 | 0.211 | 0.253 | 0.28 | 0.275 | 0.354 | 0.258 | 0.218 | 0.29 | 0.37 | 0.292 | 0.219 | 0.271
9 | LOU-NH91 | 0.53 | 0.496 | 0.483 | 0.484 | 0.469 | 0.735 | 0.669 | 0.588 | 0.501 | 0.479 | 0.579 | 0.504 | 0.448 | 0.413 | 0.377 | 0.936 | – | 0.748 | – | 0.609
10 | LU99A | 0.31 | 0.311 | 0.285 | 0.263 | 0.207 | 0.513 | 0.586 | 0.472 | 0.527 | 0.32 | 0.636 | 0.352 | 0.551 | 0.51 | 0.278 | 0.428 | 0.465 | 0.469 | 0.529 | 0.43
11 | LXF-289 | 0.785 | 0.821 | – | 0.759 | 0.418 | 0.879 | 0.871 | 0.75 | 0.821 | 0.752 | 0.186 | 0.234 | 0.162 | 0.21 | 0.188 | 0.819 | 0.866 | 0.732 | 0.803 | 0.765
12 | NCI-H1299 | 0.729 | 0.901 | 0.805 | 0.459 | 0.28 | 0.991 | 1.02 | 0.95 | 0.991 | 1.06 | – | – | – | – | – | – | – | – | – | –
13 | NCI-H1395 | 0.595 | 0.679 | 0.602 | 0.659 | 0.449 | – | – | – | – | – | 0.406 | 0.388 | 0.458 | 0.413 | 0.318 | 0.846 | 0.698 | – | 0.722 | 0.595
14 | NCI-H1563 | 0.608 | 0.636 | 0.664 | 0.617 | 0.602 | 0.918 | 0.802 | 0.788 | 0.758 | 0.638 | 0.513 | 0.485 | 0.499 | 0.41 | 0.332 | – | – | – | – | –
15 | NCI-H1648 | – | – | – | – | – | – | – | – | – | – | – | – | – | – | – | 0.328 | 0.427 | 0.283 | 0.304 | 0.368
16 | NCI-H1703 | 0.23 | 0.224 | 0.244 | 0.201 | 0.212 | – | 0.582 | 0.637 | 0.5 | 0.14 | – | – | – | – | – | – | – | – | – | –
17 | NCI-H1792 | 0.311 | 0.274 | 0.254 | 0.278 | 0.126 | 1.1 | 1.09 | 0.931 | 0.867 | 0.872 | 0.769 | 0.905 | 0.738 | 0.684 | 0.368 | – | – | – | – | –
18 | NCI-H1793 | 0.31 | 0.361 | 0.319 | 0.339 | 0.275 | – | – | – | – | – | 0.43 | 0.457 | 0.321 | 0.34 | 0.264 | 0.765 | 0.849 | 0.473 | 0.487 | 0.355
19 | NCI-H2342 | – | – | – | – | – | – | – | – | – | – | 0.326 | 0.318 | 0.285 | 0.26 | 0.318 | 0.797 | 0.88 | 0.647 | 0.585 | 0.54
20 | SW 900 | – | – | – | – | – | – | – | – | – | – | 0.544 | 0.732 | 0.392 | 0.458 | 0.454 | 0.414 | 0.738 | 0.473 | 0.451 | 0.506
